The NIST ThermoML archive (doi:10.1021/je700339f)

Test: xn = mol fraction of the nth substance listed
Conditions: 298 K, Liquid

ClCCCCCCCl [1,6-dichlorohexane] + CC(=O)N(C)C
mass density [kg/m3]
Conditions | x2 = 0.1002 | x2 = 0.1985 | x2 = 0.3002 | x2 = 0.404 | x2 = 0.4943 | x2 = 0.6007 | x2 = 0.7006 | x2 = 0.8012 | x2 = 0.8994
10000 kPa | – | – | – | – | 1018.9 | 1005.2 | 991.6 | 976.7 | 960.6
10500 kPa | 1061.7 | 1052.3 | 1041.6 | 1030.2 | 1019.2 | 1005.5 | 992 | 977 | 960.9
11000 kPa | 1062 | 1052.6 | 1041.9 | 1030.4 | 1019.5 | 1005.8 | 992.3 | – | 961.2
11400 kPa | – | – | – | – | – | – | – | – | 961.5
11500 kPa | 1062.3 | 1052.9 | 1042.2 | 1030.7 | 1019.9 | 1006.1 | 992.6 | 977.6 | –
12000 kPa | 1062.7 | 1053.3 | 1042.5 | 1031 | 1020.2 | 1006.5 | 992.9 | 977.9 | 961.8
12500 kPa | 1063 | 1053.6 | 1042.9 | 1031.4 | 1020.5 | 1006.7 | 993.2 | 978.2 | 962.1
13000 kPa | 1063.4 | 1054 | 1043.2 | 1031.7 | 1020.8 | 1007 | 993.5 | 978.5 | 962.4
13500 kPa | 1063.7 | 1054.3 | 1043.5 | 1032 | 1021.1 | 1007.4 | 993.8 | 978.7 | 962.6
14000 kPa | 1063.9 | 1054.7 | 1043.8 | 1032.4 | 1021.4 | 1007.6 | 994.1 | 979 | 963
14500 kPa | 1064.3 | 1055 | 1044.2 | 1032.6 | 1021.7 | 1008 | 994.4 | 979.4 | 963.2
15000 kPa | 1064.6 | 1055.3 | 1044.5 | 1032.9 | 1022 | 1008.2 | 994.7 | 979.6 | 963.4
15500 kPa | 1064.9 | 1055.6 | 1044.8 | 1033.3 | 1022.3 | 1008.6 | 995 | 980 | 963.8
16000 kPa | 1065.3 | 1055.9 | 1045.1 | 1033.6 | 1022.6 | 1009 | 995.3 | 980.2 | 964
16400 kPa | – | – | – | – | – | – | – | 980.5 | –
16500 kPa | 1065.6 | 1056.2 | 1045.3 | 1033.9 | 1022.9 | 1009.3 | 995.6 | – | 964.3
17000 kPa | 1065.9 | 1056.5 | 1045.7 | 1034.2 | 1023.2 | 1009.6 | 995.9 | 980.8 | 964.6
17400 kPa | – | – | – | – | – | – | 996.2 | – | –
17500 kPa | 1066.2 | 1056.8 | 1046 | 1034.6 | 1023.5 | 1009.9 | – | 981.1 | 964.9
18000 kPa | 1066.5 | 1057.1 | 1046.3 | 1034.9 | 1023.8 | 1010.2 | 996.5 | 981.4 | 965.2
18500 kPa | 1066.8 | 1057.5 | 1046.7 | 1035.2 | 1024 | 1010.5 | 996.9 | 981.6 | 965.4
19000 kPa | 1067.2 | 1057.8 | 1047 | 1035.5 | 1024.3 | 1010.9 | 997.1 | 982 | 965.7
19500 kPa | 1067.5 | 1058.1 | 1047.3 | 1035.9 | 1024.7 | 1011.2 | 997.4 | 982.3 | 966
19900 kPa | – | – | – | – | – | – | 997.6 | – | –
20000 kPa | 1067.9 | 1058.4 | 1047.7 | 1036.2 | 1025 | 1011.5 | – | 982.6 | 966.4
